Seven compounds from patent US20100222269A1, “IMPROVED DERIVATIVES OF AMYLIN” (priority 2007, published 2010) can be followed below.

Starred links: 1 amine or outer side, 2 acyl side, 3 side chain; linkers in the order of their positions; H or OH if unused. Positions of bridges follow the written chain, without caps; N, C: chain ends. Non-standard residues stand in square brackets, D forms with d. Residues, ends and D or L forms follow the SMILES beside them. *: point of attachment. C20 diacid = O=C(O)CCCCCCCCCCCCCCCCCCC(=O)*; γGlu = O=C(O)[C@H](CCC(=O)[*:2])N[*:1]; AEEA = NCCOCCOCC(=O)O

In the test the target is T1, Amylin 3(a) receptor (human calcitonin receptor (CTa) with RAMP-3) (Homo sapiens, UniProt O60896+P30988).
T1 construct: expressed in transfected cells; host or cells: BHK570 (baby hamster kidney) cells, stably transfected, with CRE-luciferase reporter
Briefly: Amylin luciferase assay (CRE-luciferase reporter in BHK Amylin 3(a)//CRE-luc cells). Type of test: cell-based. The conditions noted are these: BHK570 cells with human calcitonin receptor (CTa), RAMP-3 and CRE-luciferase reporter; 4 hours incubation; read-out: Potency luciferase assay. The method, boiled down: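 BHK570 cells stably expressing human calcitonin receptor (CTa), RAMP-3 and a CRE-luciferase reporter, about 20.000 cells/well, were exposed to standard or sample for 4 h at 37° C in phenol-red-free DMEM with 10% FBS and 10 mM Hepes pH 7,4. Luminescence was read after 30 min with LucLite at room temperature.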
(In a reporter assay the amount or activity of a reporter protein is the signal.)

T1 sequence (O60896 24-148): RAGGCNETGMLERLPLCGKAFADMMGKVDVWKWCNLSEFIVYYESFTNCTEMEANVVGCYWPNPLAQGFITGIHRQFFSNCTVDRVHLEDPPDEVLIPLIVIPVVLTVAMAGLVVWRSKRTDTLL
T1 sequence (P30988 25-474): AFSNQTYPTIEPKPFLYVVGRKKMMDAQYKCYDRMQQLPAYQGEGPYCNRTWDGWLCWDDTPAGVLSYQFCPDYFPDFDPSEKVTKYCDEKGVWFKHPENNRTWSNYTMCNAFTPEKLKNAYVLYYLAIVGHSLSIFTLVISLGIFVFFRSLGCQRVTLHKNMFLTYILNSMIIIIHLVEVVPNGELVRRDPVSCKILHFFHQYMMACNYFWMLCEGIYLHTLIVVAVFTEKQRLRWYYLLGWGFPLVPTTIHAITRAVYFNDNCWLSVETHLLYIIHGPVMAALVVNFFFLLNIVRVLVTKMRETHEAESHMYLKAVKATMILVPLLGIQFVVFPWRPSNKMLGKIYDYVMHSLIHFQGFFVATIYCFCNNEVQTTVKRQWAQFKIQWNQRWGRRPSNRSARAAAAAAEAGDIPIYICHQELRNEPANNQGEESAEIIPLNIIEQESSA

Take `CC[C@H](C)[C@H](NC(=O)[C@@H]1CCCN1C(=O)CNC(=O)[C@H](Cc1ccccc1)NC(=O)[C@H](CC(N)=O)NC(=O)[C@H](CC(N)=O)NC(=O)[C@H](CO)NC(=O)[C@H](CO)NC(=O)[C@H](Cc1c[nH]cn1)NC(=O)[C@@H](NC(=O)[C@H](CC(C)C)NC(=O)[C@H](Cc1ccccc1)NC(=O)[C@H](CC(N)=O)NC(=O)[C@H](C)NC(=O)[C@H](CC(C)C)NC(=O)[C@H](CCCNC(=N)N)NC(=O)[C@H](CCC(N)=O)NC(=O)[C@@H](NC(=O)[C@H](C)NC(=O)[C@@H]1CSSC[C@H](NC(=O)[C@H](CCCNC(=N)N)NC(=O)[C@H](CCC(=O)O)NC(=O)CCCCCCCCCCCCCCCCCCC(=O)O)C(=O)N[C@@H](CC(N)=O)C(=O)N[C@@H]([C@@H](C)O)C(=O)N[C@@H](C)C(=O)N[C@@H]([C@@H](C)O)C(=O)N1)[C@@H](C)O)C(C)C)C(=O)N[C@@H](CC(C)C)C(=O)N1CCC[C@H]1C(=O)N1CCC[C@H]1C(=O)N[C@H](C(=O)N[C@@H](CC(N)=O)C(=O)N[C@H](C(=O)NCC(=O)N[C@@H](CO)C(=O)N[C@@H](CC(N)=O)C(=O)N[C@H](C(=O)N[C@@H](Cc1ccc(O)cc1)C(N)=O)[C@@H](C)O)C(C)C)[C@@H](C)O` [Example 46, N-alpha-(19-carboxynonadecanoyl)-Glu-[Arg1]-pramlintide (1-37)] ({C20 diacid}-ERCNTATCATQRLANFLVHSSNNFGPILPPTNVGSNTY-NH2; disulfide 3-8; C-terminus assumed): the EC50 came out at 0.1 nM.

`CC[C@H](C)[C@H](NC(=O)[C@@H]1CCCN1C(=O)CNC(=O)[C@H](Cc1ccccc1)NC(=O)[C@H](CC(N)=O)NC(=O)[C@H](CC(N)=O)NC(=O)[C@H](CO)NC(=O)[C@H](CO)NC(=O)[C@H](Cc1c[nH]cn1)NC(=O)[C@@H](NC(=O)[C@H](CC(C)C)NC(=O)[C@H](Cc1ccccc1)NC(=O)[C@H](CC(N)=O)NC(=O)[C@H](C)NC(=O)[C@H](CC(C)C)NC(=O)[C@H](CCCNC(=N)N)NC(=O)[C@H](CCC(N)=O)NC(=O)[C@@H](NC(=O)[C@H](C)NC(=O)[C@@H]1CSSC[C@H](NC(=O)[C@H](CCCNC(=N)N)NC(=O)[C@H](CCCNC(=N)N)NC(=O)CC[C@H](NC(=O)CCCCCCCCCCCCCCCCCCC(=O)O)C(=O)O)C(=O)N[C@@H](CC(N)=O)C(=O)N[C@@H]([C@@H](C)O)C(=O)N[C@@H](C)C(=O)N[C@@H]([C@@H](C)O)C(=O)N1)[C@@H](C)O)C(C)C)C(=O)N[C@@H](CC(C)C)C(=O)N1CCC[C@H]1C(=O)N1CCC[C@H]1C(=O)N[C@H](C(=O)N[C@@H](CC(N)=O)C(=O)N[C@H](C(=O)NCC(=O)N[C@@H](CO)C(=O)N[C@@H](CC(N)=O)C(=O)N[C@H](C(=O)N[C@@H](Cc1ccc(O)cc1)C(N)=O)[C@@H](C)O)C(C)C)[C@@H](C)O` [Example 47, N-alpha-[(S)-4-carboxy-4-(19-carboxynonadecanoylamino)butyryl]-Arg-[Arg1]-pramlintide (1-37)] ({C20 diacid-γGlu}-RRCNTATCATQRLANFLVHSSNNFGPILPPTNVGSNTY-NH2; disulfide 3-8; C-terminus assumed): the EC50 came to 0.1 nM. Then `CC[C@H](C)[C@H](NC(=O)[C@@H]1CCCN1C(=O)CNC(=O)[C@H](Cc1ccccc1)NC(=O)[C@H](CC(N)=O)NC(=O)[C@H](CC(N)=O)NC(=O)[C@H](CO)NC(=O)[C@H](CO)NC(=O)[C@H](Cc1c[nH]cn1)NC(=O)[C@@H](NC(=O)[C@H](CC(C)C)NC(=O)[C@H](Cc1ccccc1)NC(=O)[C@H](CC(N)=O)NC(=O)[C@H](C)NC(=O)[C@H](CC(C)C)NC(=O)[C@H](CCCNC(=N)N)NC(=O)[C@H](CCC(N)=O)NC(=O)[C@@H](NC(=O)[C@H](C)NC(=O)[C@@H]1CSSC[C@H](NC(=O)[C@H](CCCCN)NC(=O)[C@H](CCCCN)NC(=O)CC[C@H](NC(=O)CCCCCCCCCCCCCCCCCCC(=O)O)C(=O)O)C(=O)N[C@@H](CC(N)=O)C(=O)N[C@@H]([C@@H](C)O)C(=O)N[C@@H](C)C(=O)N[C@@H]([C@@H](C)O)C(=O)N1)[C@@H](C)O)C(C)C)C(=O)N[C@@H](CC(C)C)C(=O)N1CCC[C@H]1C(=O)N1CCC[C@H]1C(=O)N[C@H](C(=O)N[C@@H](CC(N)=O)C(=O)N[C@H](C(=O)NCC(=O)N[C@@H](CO)C(=O)N[C@@H](CC(N)=O)C(=O)N[C@H](C(=O)N[C@@H](Cc1ccc(O)cc1)C(N)=O)[C@@H](C)O)C(C)C)[C@@H](C)O` [Example 48, N-alpha-[(S)-4-carboxy-4-(19-carboxynonadecanoylamino)butyryl]-Lys-pramlintide (1-37)] ({C20 diacid-γGlu}-KKCNTATCATQRLANFLVHSSNNFGPILPPTNVGSNTY-NH2; disulfide 3-8), with 0.1 nM; and `CC[C@H](C)[C@H](NC(=O)[C@@H]1CCCN1C(=O)CNC(=O)[C@H](Cc1ccccc1)NC(=O)[C@H](CC(N)=O)NC(=O)[C@H](CC(N)=O)NC(=O)[C@H](CO)NC(=O)[C@H](CO)NC(=O)[C@H](Cc1c[nH]cn1)NC(=O)[C@@H](NC(=O)[C@H](CC(C)C)NC(=O)[C@H](Cc1ccccc1)NC(=O)[C@H](CC(N)=O)NC(=O)[C@H](C)NC(=O)[C@H](CC(C)C)NC(=O)[C@H](CCCNC(=N)N)NC(=O)[C@H](CCC(N)=O)NC(=O)[C@@H](NC(=O)[C@H](C)NC(=O)[C@@H]1CSSC[C@H](NC(=O)[C@H](CCCCN)NC(=O)[C@H](CCCNC(=N)N)NC(=O)CC[C@H](NC(=O)CCCCCCCCCCCCCCCCCCC(=O)O)C(=O)O)C(=O)N[C@@H](CC(N)=O)C(=O)N[C@@H]([C@@H](C)O)C(=O)N[C@@H](C)C(=O)N[C@@H]([C@@H](C)O)C(=O)N1)[C@@H](C)O)C(C)C)C(=O)N[C@@H](CC(C)C)C(=O)N1CCC[C@H]1C(=O)N1CCC[C@H]1C(=O)N[C@H](C(=O)N[C@@H](CC(N)=O)C(=O)N[C@H](C(=O)NCC(=O)N[C@@H](CO)C(=O)N[C@@H](CC(N)=O)C(=O)N[C@H](C(=O)N[C@@H](Cc1ccc(O)cc1)C(N)=O)[C@@H](C)O)C(C)C)[C@@H](C)O` [Example 49, N-alpha-[(S)-4-carboxy-4-(19-carboxynonadecanoylamino)butyryl]-Arg-pramlintide (1-37)] ({C20 diacid-γGlu}-RKCNTATCATQRLANFLVHSSNNFGPILPPTNVGSNTY-NH2; disulfide 3-8; C-terminus assumed), with 0.2 nM; and `CC[C@H](C)[C@H](NC(=O)[C@@H]1CCCN1C(=O)CNC(=O)[C@H](Cc1ccccc1)NC(=O)[C@H](CC(N)=O)NC(=O)[C@H](CC(N)=O)NC(=O)[C@H](CO)NC(=O)[C@H](CO)NC(=O)[C@H](Cc1c[nH]cn1)NC(=O)[C@@H](NC(=O)[C@H](CC(C)C)NC(=O)[C@H](Cc1ccccc1)NC(=O)[C@H](CC(N)=O)NC(=O)[C@H](C)NC(=O)[C@H](CC(C)C)NC(=O)[C@H](CCCNC(=N)N)NC(=O)[C@H](CCC(N)=O)NC(=O)[C@@H](NC(=O)[C@H](C)NC(=O)[C@@H]1CSSC[C@H](NC(=O)[C@H](CCCCN)NC(=O)[C@H](CCCNC(=N)N)NC(=O)[C@H](CCCCN)NC(=O)[C@H](CCC(=O)O)NC(=O)CCCCCCCCCCCCCCCCCCC(=O)O)C(=O)N[C@@H](CC(N)=O)C(=O)N[C@@H]([C@@H](C)O)C(=O)N[C@@H](C)C(=O)N[C@@H]([C@@H](C)O)C(=O)N1)[C@@H](C)O)C(C)C)C(=O)N[C@@H](CC(C)C)C(=O)N1CCC[C@H]1C(=O)N1CCC[C@H]1C(=O)N[C@H](C(=O)N[C@@H](CC(N)=O)C(=O)N[C@H](C(=O)NCC(=O)N[C@@H](CO)C(=O)N[C@@H](CC(N)=O)C(=O)N[C@H](C(=O)N[C@@H](Cc1ccc(O)cc1)C(N)=O)[C@@H](C)O)C(C)C)[C@@H](C)O` [Example 50, N-alpha-(19-carboxynonadecanoyl)-Glu-Lys-Arg-pramlintide (1-37)] ({C20 diacid}-EKRKCNTATCATQRLANFLVHSSNNFGPILPPTNVGSNTY-NH2; disulfide 5-10), with 0.08 nM. Then `CC[C@H](C)[C@H](NC(=O)[C@@H]1CCCN1C(=O)CNC(=O)[C@H](Cc1ccccc1)NC(=O)[C@H](CC(N)=O)NC(=O)[C@H](CC(N)=O)NC(=O)[C@H](CO)NC(=O)[C@H](CO)NC(=O)[C@H](Cc1c[nH]cn1)NC(=O)[C@@H](NC(=O)[C@H](CC(C)C)NC(=O)[C@H](Cc1ccccc1)NC(=O)[C@H](CC(N)=O)NC(=O)[C@H](C)NC(=O)[C@H](CC(C)C)NC(=O)[C@H](CCCNC(=N)N)NC(=O)[C@H](CCC(N)=O)NC(=O)[C@@H](NC(=O)[C@H](C)NC(=O)[C@@H]1CSSC[C@H](NC(=O)[C@H](CCCNC(=N)N)NC(=O)[C@H](CCCCN)NC(=O)[C@H](CCC(=O)O)NC(=O)CCCCCCCCCCCCCCCCCCC(=O)O)C(=O)N[C@@H](CC(N)=O)C(=O)N[C@@H]([C@@H](C)O)C(=O)N[C@@H](C)C(=O)N[C@@H]([C@@H](C)O)C(=O)N1)[C@@H](C)O)C(C)C)C(=O)N[C@@H](CC(C)C)C(=O)N1CCC[C@H]1C(=O)N1CCC[C@H]1C(=O)N[C@H](C(=O)N[C@@H](CC(N)=O)C(=O)N[C@H](C(=O)NCC(=O)N[C@@H](CO)C(=O)N[C@@H](CC(N)=O)C(=O)N[C@H](C(=O)N[C@@H](Cc1ccc(O)cc1)C(N)=O)[C@@H](C)O)C(C)C)[C@@H](C)O` [Example 51, N-alpha-(19-carboxynonadecanoyl)-Glu-Lys-[Arg1]-pramlintide (1-37)] ({C20 diacid}-EKRCNTATCATQRLANFLVHSSNNFGPILPPTNVGSNTY-NH2; disulfide 4-9; C-terminus assumed), with 0.07 nM. Regarding “{C20 diacid}-EER[AEEA]ECNTATCATQRLANFLVHSSNNFGPILPPTNVGSNTY-NH2 (disulfide 6-11; C-terminus assumed) [Example 44, N-alpha-(2-{2-[2-((S)-2-{(S)-4-carboxy-2-[(S)-4-carboxy-2-(19-carboxynonadecanoylamino)butyrylamino]butyrylamino}-5-guanidinopentanoylamino)ethoxy]ethoxy}acetyl)-[Glu1]-pramlintide (1-37)]”, the EC50 amounted to 0.4 nM.
